These results are taken from the METLIN SMRT retention time set (Domingo-Almenara et al. 2019).

The nature of this data set: gradient 5% acetonitrile 3 min, to 50% in 2 min, to 85% in 15 min, held 3 min, 100 µL/min. The settings on record: column: Zorbax Extend-C18 2.1 x 50 mm; eluents: water / acetonitrile, 0.1% formic acid. In a few lines: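 Retention times come from adduct peaks that were picked computationally and then checked by hand. The standards, pure and pooled in mixtures of ~100 molecules, were run on a Zorbax Extend-C18 column (2.1 × 50 mm, 1.8 μm) at 100 μL/min with water and acetonitrile, each with 0.1% formic acid. Detection was by quadrupole time-of-flight mass spectrometry in positive and negative ionization mode, with a dead volume of 40 μL and a dwell volume of 900 μL.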
For `CCc1nc2cc(-c3noc(Cc4ccc(OC)cc4Cl)n3)ccc2o1`, the RP-LC retention time worked out at 1190 s. Then `CCN(CC)C(=O)C1CCN(S(=O)(=O)c2ccc3c(c2)NC(=O)CO3)CC1`, with 680 s. `COc1ccc(-c2nnc(Cc3nc(-c4ccccc4C)no3)o2)cc1OC` gave an RP-LC retention time of 957 s. Consider `CCN(Cc1cccnc1)C(=O)CN(c1ccc(OC)nc1)S(=O)(=O)c1ccccc1C`, for which the RP-LC retention time came to 734 s. With `COc1cc(CNC(=O)C2CC(=O)N(c3ccc4oc(C)nc4c3)C2)cc(OC)c1` (centres undefined) the figure was 687 s; with `O=S(=O)(c1cc(F)cc(F)c1)N1CCC(c2noc(-c3ccc(F)cc3)n2)CC1`, 1170 s; with `O=C(CC1CCCCN1S(=O)(=O)c1ccccc1)NCCc1c[nH]c2ccccc12` (centres undefined), 794 s. With `CC(C)(C)C(O)CCNC(=O)NCc1ccc(Cl)cc1` (centres undefined) the figure was 739 s; with `Cc1ccc(CNC(=O)C2(C)CCN(S(=O)(=O)c3ccc(C)c(C)c3)CC2)cc1`, 1050 s; with `CCCn1cc(C(=O)N2CCC(N3CCCCC3)CC2)c2cccnc21`, 567 s. With `Cc1ccc(Cl)c(Nc2ccccc2C(=O)O)c1Cl` the figure was 1050 s. Take `CC(C)(C)NC(=O)N1CCC(N2CC3(CCCCC3)C2c2ccncc2)CC1` (centres undefined): the RP-LC retention time came out at 611 s. With `CN1CCCCCCN(C(=O)Cn2c(=O)oc3ccccc32)[C@H]2CCC[C@H]2C1=O` the figure was 830 s; with `COc1ccc(CC(=O)Nc2c3c(nn2-c2ccc([N+](=O)[O-])cc2)CSC3)cc1OC`, 777 s. With `COc1ccc(-c2nnc(-c3cccc(S(=O)(=O)N4CCC(C)CC4)c3)o2)cc1OC` the figure was 1050 s; with `Cc1cc(C)cc(-c2nc(-c3cccc(-c4ccnn4C)c3)no2)c1`, 1340 s; with `CCN(CC)C(=O)c1ccccc1NC(=O)c1ccc2c(c1)-c1ccccc1S(=O)(=O)N2CC`, 992 s. Then `Cc1ccc(C)c(NC(=O)Cn2nc3c(N4CCCCCC4)nccn3c2=O)c1`, with 730 s; and `CC1CCC2(CC1)NC(=O)N(CC(=O)NCc1ccccc1)C2=O` (centres undefined), with 784 s; and `CCOC(=O)c1sc(NC(=O)CSc2nc3ccccc3[nH]2)nc1C`, with 810 s. The compound `CCc1cc(=O)n(CC(=O)Nc2cccc(C)c2)c(N)n1` had an RP-LC retention time of 600 s.

With `CCCCNC(=O)c1cn(-c2cc(-c3nc(C)no3)ccn2)cn1`, the RP-LC retention time came to 779 s. Regarding `Cc1nn(CC(=O)NCC2CCCCC2)c(=O)c2nc(-c3ccccc3)sc12`, the RP-LC retention time was found to be 958 s.

In turn, `Cc1cnc(C(=O)N[C@@H]2CCC[C@@H]2C(=O)NCC2CCCCC2)cn1` yielded an RP-LC retention time of 742 s. With `COC(=O)c1sccc1NC(=O)C1CCN(Cc2nc(-c3ccc(OC)c(OC)c3)no2)CC1` the figure was 747 s; with `Cc1nc(-c2csc(S(=O)(=O)N3CCCC(C(=O)Nc4ccc(Cl)cc4F)C3)c2)no1` (centres undefined), 1050 s. With `CC(C)CN1CCN(S(=O)(=O)c2cc(-c3nnc(C4CCCC4)o3)co2)CC1` the figure was 678 s. Compound `COc1ccc(-c2cc(C(=O)O)c3ccccc3n2)cc1` had an RP-LC retention time of 645 s. With `CCOc1ccc(-c2[nH]ncc2CNS(=O)(=O)c2ccccc2CC)cc1` the figure was 884 s; with `COc1cccc(Cn2nc(-c3nc(-c4ccc(Cl)cc4)no3)ccc2=O)c1`, 1190 s. The compound `Cc1cccc(OCC(=O)N2CCN(c3cc(C)n4c(C)nnc4n3)CC2)c1` registered an RP-LC retention time of 614 s.

Turning to `COc1ccccc1C1(CNC(=O)Nc2ccccc2F)CCOCC1`, the RP-LC retention time came out at 810 s. With `COc1ccccc1C(=O)Nc1cnc(N2CCCC2)nc1` the figure was 731 s; with `O=C(Nc1ccc(Cl)cc1F)C1CCCN(C(=O)c2cc(-c3ccccn3)n[nH]2)C1` (centres undefined), 740 s; with `COC(=O)c1c(C)[nH]c(C(=O)N2CCC(CC(=O)N(C)Cc3ccco3)CC2)c1C`, 728 s. With `N#CC(C#N)=Cc1ccc(O)c(O)c1` the figure was 841 s. Then `COCc1c(C(=O)O)nnn1-c1ccc(F)c(C)c1`, with 723 s; and `Cc1ccc(-c2cc(NC(=O)c3cccc(N(C)C)c3)on2)s1`, with 1050 s. `COc1ccccc1NC(=O)NCC(c1cccnc1)c1cn(C)c2ccccc12` (centres undefined) registered an RP-LC retention time of 678 s.

In the case of `CC(=O)N1CCc2ccccc2C1C(=O)NCc1ccc2c(c1)OCO2` (centres undefined), the RP-LC retention time turned out to be 731 s. `O=C(Nc1nnc(-c2ccc(Cl)s2)o1)c1ccc(S(=O)(=O)N2CCCC2)cc1` returned an RP-LC retention time of 814 s. Then `Cc1ccsc1C(=O)N1CCC2(CC1)N=C(c1ccc(Cl)cc1)NO2`, with 896 s; and `O=C1CCCc2cc(S(=O)(=O)N3CCC(C(=O)N4CCC5(CC4)OCCO5)CC3)ccc2N1`, with 662 s. Compound `COc1ccc(N2C(=O)CCC(C(=O)NCCCN3CCC(C)CC3)C2c2ccc(F)cc2)cc1` (centres undefined) had an RP-LC retention time of 605 s. Then `Cc1cc(=O)n(CC(=O)Nc2ccc(N(C)C)cc2)c(-c2ccccc2)n1`, with 639 s. With `O=C(NC1CC(=O)N(C2CC2)C1)c1cc(-c2ccccc2)n[nH]1` (centres undefined) the figure was 607 s; with `Cc1ncc2c(n1)C[C@@H]1CC[C@H]2N1C(=O)Nc1ccc2c(c1)OCCO2`, 630 s. `COc1ccc(-n2ccn3cc(-c4ccc(Br)cc4)nc3c2=O)cc1` displayed an RP-LC retention time of 891 s. With `Cc1cc2c(=O)n(CC(=O)Nc3ccc(C(F)(F)F)cc3)ccc2s1` the figure was 706 s.

Consider `O=C(NCCN1CCOCC1)C1CCN(c2cnc(N3CCSCC3)nc2)CC1`, for which the RP-LC retention time is 590 s.

In turn, `CC(C)C(=O)N1CCc2ccccc2C1C(=O)N1CCN(c2ccc(F)cc2)CC1` (centres undefined) showed an RP-LC retention time of 930 s. With `Cc1cc(=O)n(CC(=O)Nc2ccc3c(c2)OCCO3)c(N2CCCC2)n1` the figure was 620 s; with `Cc1ccc(-c2cc(C(F)(F)F)on2)cc1S(=O)(=O)N1CCCCC1C` (centres undefined), 852 s. Then `CCc1ccccc1NC(=O)N1CCC(c2cc(N)on2)CC1`, with 751 s; and `Cc1nnc(N2CCC(C(=O)NCCc3c[nH]c4ccccc34)CC2)c2nn(-c3ccccc3)c(C)c12`, with 730 s. With `CC(=O)Nc1ccc(S(=O)(=O)N2CCc3c(c(-c4nnc(-c5ccccc5)o4)nn3C)C2)cc1`, the RP-LC retention time worked out at 775 s.

Turning to `O=C(NCc1cccs1)c1ccc(-c2nccnc2N2CCCCC2)cc1`, the RP-LC retention time amounted to 968 s. On to `Cc1ccc(-c2ccc(-n3nc(C)c(S(=O)(=O)N4CCCC4)c3C)nn2)cc1`, for which the RP-LC retention time stood at 989 s. With `CCc1nc2cccnc2n1CCN1CCN(C(=O)Nc2cccc(Br)c2)CC1` the figure was 616 s; with `CCOc1cccc2sc(N(CCN(C)C)C(=O)c3ccco3)nc12`, 710 s.

As to `Cc1noc(C)c1CN1CCC(NC(=O)Cc2ccc(F)cc2)CC1`, the RP-LC retention time was determined as 582 s. With `O=S(=O)(Nc1ccc(F)cc1)c1cccnc1Nc1ccc(F)cc1` the figure was 1060 s; with `CCC(=O)N1CCN(c2nc(CC(C)C)c3c(c2C#N)CC(C)(C)OC3)CC1`, 1110 s. Then `CSc1cccc(NC(=O)N2CCN(c3cnn4c(C5CC5)nnc4c3)CC2)c1`, with 694 s. Then `c1ccc(-n2nnnc2-c2cccc3ccccc23)cc1`, with 1010 s; and `Cn1cc(-c2cc3n(n2)CCC(=O)N3CC(=O)NCc2ccco2)c2ccccc21`, with 756 s; and `CC(C)(C)c1noc(-c2ccnc(-n3cnc(C(=O)NC4CCCC4)c3)c2)n1`, with 1020 s.

Regarding `CN1CCCc2cc(C(=O)N3CCC4(CC3)OCCO4)sc21`, the RP-LC retention time was 796 s. With `Cc1cc(C)cc(Nc2nc(C)cc(=O)n2CC(=O)NC(C)CCc2ccccc2)c1` (centres undefined) the figure was 1030 s. The compound `COCCNC(=O)N1CC(c2nc(-c3cccnc3)no2)C2(CCOCC2)C1` (centres undefined) returned an RP-LC retention time of 596 s. `Cc1cc(C)c2c(N3CCCC3)nc(C(=O)Nc3ccc4c(c3)OCCO4)nc2n1` displayed an RP-LC retention time of 583 s. Then `CCN(CC)c1nc(C(=O)N2CCN(C(C)C)CC2)nc2nc(C)cc(C)c12`, with 543 s; and `COc1cccc(Nc2nc(C)c(C(=O)Nc3cc(F)cc(F)c3)s2)c1`, with 1040 s. Then `CCOC(=O)c1cc(C2CC2)nc2c1c(=O)n(Cc1cccc(C)c1)c(=O)n2C`, with 1230 s. With `O=C(NC1CCCCC1)c1ccc(Nc2c(-c3ccccc3)nc3cnccn23)cc1` the figure was 802 s.

As for `O=C(NCc1cccc(Cl)c1)c1c(O)c2cccnc2n(-c2ccccc2)c1=O`, the RP-LC retention time is 1220 s. In the case of `COc1cccc(-n2c(N3CCCC(C(=O)NC4CCCC4)C3)nc3ccsc3c2=O)c1` (centres undefined), the RP-LC retention time turned out to be 818 s.

The compound `COc1ccc(-n2ccc(=O)c(-c3nc(-c4ccc(C)cc4)no3)n2)cc1` displayed an RP-LC retention time of 932 s.

`CCN1CCN(CCCNC(=O)c2cc(-c3cccnc3)nc3ccc(Br)cc23)CC1` gave an RP-LC retention time of 581 s.
